Measured values reported in patent publication US20170066741A1, “2-Amino-3,5,5-Trifluoro-3,4,5,6-Tetrahydropyridines as BACE1 Inhibitors for Treatment of Alzheimer's Disease” (H. Lundbeck A/S, priority 2014, published 2017).

Molecular target: T1, BACE1 enzyme (Homo sapiens, UniProt P56817)
T1 construct: purchased Life Technologies P2985
Test: BACE1 efficacy assay (FRET-based, commercial BACE1 kit)
Assay type: biochemical
Conditions: test compound 10 μM
Protocol: The efficacy assay was performed as a FRET-based assay using a commercially available BACE1 kit (Life Technologies, P2985). 2 μl test compound at 10 μM (final concentration) and 15 μl BACE1 enzyme from the kit (final concentration 3 nM) were preincubated for 15 minutes at room temperature before addition of […] of substrate from the kit (250 nM final concentration) and incubated for additional 90 minutes at room temperature. The assay plate was subsequently read in a Pherastar (Ex540/Em590). […] The efficacy of the test compounds was evaluated at 10 μM (final concentration) and defined as the percent inhibition of the enzyme activity using the equation % inhibition=100%−normalized enzyme activity in percent.

T1 sequence (P56817 46-501): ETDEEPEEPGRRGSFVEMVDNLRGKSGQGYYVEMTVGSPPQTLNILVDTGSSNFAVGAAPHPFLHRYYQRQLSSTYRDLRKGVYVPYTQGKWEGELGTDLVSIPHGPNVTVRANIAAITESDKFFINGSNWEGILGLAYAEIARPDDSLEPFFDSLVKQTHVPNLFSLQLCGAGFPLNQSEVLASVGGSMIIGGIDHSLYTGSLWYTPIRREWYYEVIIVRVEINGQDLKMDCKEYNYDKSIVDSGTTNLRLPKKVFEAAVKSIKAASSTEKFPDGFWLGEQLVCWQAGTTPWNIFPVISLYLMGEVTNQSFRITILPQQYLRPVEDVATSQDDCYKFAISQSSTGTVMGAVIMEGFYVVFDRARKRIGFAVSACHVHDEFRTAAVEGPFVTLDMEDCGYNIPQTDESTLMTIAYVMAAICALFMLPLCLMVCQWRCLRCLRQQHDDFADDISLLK

SMILES | inhibition at 10 µM [%]
COc1ccc(C(=O)Nc2ccc(F)c([C@@]3(C)N=C(N)[C@@](C)(F)CC3(F)F)c2)nc1 [Compound 17, N-(3-((2R,5S)-6-amino-3,3,5-trifluoro-2,5-dimethyl-2,3,4,5-tetrahydropyridin-2-yl)-4-fluorophenyl)-5-methoxypicolinamide] | 101
Cc1cc(C#N)cnc1C(=O)Nc1ccc(F)c([C@@]2(C)N=C(N)[C@@](C)(F)CC2(F)F)c1 [Compound 18, N-(3-((2R,5S)-6-amino-3,3,5-trifluoro-2,5-dimethyl-2,3,4,5-tetrahydropyridin-2-yl)-4-fluorophenyl)-5-cyano-3-methylpicolinamide] | 102
C[C@@]1(F)CC(F)(F)[C@@](C)(c2cc(NC(=O)c3ccn(C(F)F)n3)ccc2F)N=C1N [Compound 23, N-(3-((2R,5R)-6-amino-3,3,5-trifluoro-2,5-dimethyl-2,3,4,5-tetrahydropyridin-2-yl)-4-fluorophenyl)-1-(difluoromethyl)-1H-pyrazole-3-carboxamide] | 102
